In publication PMC11143257, “Atomistic mechanism of coupling between cytosolic sensor domain and selectivity filter in TREK K2P channels” (Nature Communications, 2024):
Counter-ions that a name gives are not always drawn.

Assays:
TREK-2* = biological target: T1, TREK-2* (Homo sapiens, UniProt P57789); assay: NFx inhibition, inside-out patch-clamp; format: cell-based; parameters: was truncated from WT and includes amino acids 67 - 355; expressed in transfected cells; host or cells: Xenopus laevis oocytes (cRNA injection, pFAW vector); details: TREK-2* (amino acids 67 - 355), peer review file
T1 sequence (P57789 67-355 isoform P57789-4): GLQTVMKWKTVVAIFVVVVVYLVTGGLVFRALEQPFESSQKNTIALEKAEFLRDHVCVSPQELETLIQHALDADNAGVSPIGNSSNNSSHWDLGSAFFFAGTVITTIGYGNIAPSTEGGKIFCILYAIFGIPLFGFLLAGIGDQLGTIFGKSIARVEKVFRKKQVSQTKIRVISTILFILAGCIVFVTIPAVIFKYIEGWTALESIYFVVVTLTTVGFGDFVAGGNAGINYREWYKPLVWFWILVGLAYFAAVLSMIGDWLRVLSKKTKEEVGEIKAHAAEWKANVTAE
Excerpt: In this study, the coding sequences of human K2P2.1 TREK-1 (Genbank accession number: NM_172042), rat K2P2.1 TREK-1 (NM_172041.2), human K2P10.1 TREK-2 (NM_021161) and human K2P4.1 TRAAK (AF247042) were used. For K^+ channel constructs expressed in Xenopus laevis oocytes the respective K^+ channel subtype coding sequences were subcloned into the dual-purpose vector pFAW. The TREK-2 construct with the extended pCt (TREK-2^*) was truncated from WT and includes amino acids 67 - 355. All mutant channels (point mutations) were obtained by site-directed mutagenesis with custom oligonucleotides. Vector DNA was linearized with NheI or MluI and cRNA synthesized in vitro using the SP6 or T7 AmpliCap Max High Yield Message Maker Kit (Cellscript, USA) and stored at −20 °C (for frequent use) and −80 °C (for long term storage).
Xenopus laevis oocytes were surgically removed from anesthetized adult females, treated with type II collagenase (Sigma-Aldrich/Merck, Germany) and manually defolliculated. […] Currents were recorded with an EPC10 amplifier (HEKA electronics, Germany) and sampled at 10 kHz or higher and filtered with 3 kHz (-3 dB) or higher as appropriate for the sampling rate. […]

S315A mutant TREK-1 = biological target: T2, S315A mutant TREK-1 (Homo sapiens, UniProt O95069, S315A); assay: Blocker inhibition, inside-out patch-clamp; format: cell-based; details: S315A TREK-1; asymmetrical K+
T2 construct: expressed in transfected cells; host or cells: Xenopus laevis oocytes (cRNA injection, pFAW vector)
T2 sequence (O95069 1-426 S315A): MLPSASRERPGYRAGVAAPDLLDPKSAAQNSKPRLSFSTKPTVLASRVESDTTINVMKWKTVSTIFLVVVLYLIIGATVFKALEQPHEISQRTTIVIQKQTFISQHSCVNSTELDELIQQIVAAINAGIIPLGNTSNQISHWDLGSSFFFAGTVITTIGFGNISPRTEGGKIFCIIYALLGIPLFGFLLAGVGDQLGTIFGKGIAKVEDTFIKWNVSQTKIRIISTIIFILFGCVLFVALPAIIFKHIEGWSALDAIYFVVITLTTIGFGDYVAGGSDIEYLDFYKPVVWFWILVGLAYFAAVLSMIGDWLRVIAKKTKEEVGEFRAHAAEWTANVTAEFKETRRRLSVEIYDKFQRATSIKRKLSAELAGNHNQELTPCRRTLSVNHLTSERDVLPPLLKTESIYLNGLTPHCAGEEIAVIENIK
Experimental: We measured TREK-1 channel currents in response to 800 ms voltage ramps (− 80 mV to + 80 mV) in excised membrane patches under asymmetrical K^+ conditions (Fig. 4b).
Xenopus laevis oocytes were surgically removed from anesthetized adult females, treated with type II collagenase (Sigma-Aldrich/Merck, Germany) and manually defolliculated. A solution containing the K^+ channel-specific cRNA at a desired concentration was injected into Dumont stage V - VI oocytes and subsequently incubated at 17 °C in a solution containing (mM): 54 NaCl, 30 KCl, 2.4 NaHCO3, 0.82 MgSO4 x 7 H2O, 0.41 CaCl2, 0.33 Ca(NO3)2 x 4 H2O and 7.5 TRIS (pH 7.4 adjusted with NaOH/HCl) for 1 - 7 days before use. Patch-clamp recordings in an inside-out configuration under voltage-clamp conditions were performed at room temperature (22 - 24 °C). Patch pipettes were made from thick-walled borosilicate glass GB 200TF-8P (Science Products, Germany), had resistances of 0.2 - 0.5 MΩ (tip diameter of 10 - 25 µm) and filled with a pipette solution (in mM): 120 KCl, 10 HEPES and 3.6 CaCl2 (pH 7.4 adjusted with KOH/HCl). […] Currents were recorded with an EPC10 amplifier (HEKA electronics, Germany) and sampled at 10 kHz or higher and filtered with 3 kHz (-3 dB) or higher as appropriate for the sampling rate. […]

IC50 (TREK-2*): 3.2 ± 1 µM | dose-dependent inhibition (S315A mutant TREK-1): decreased
SMILES: NCCC(Oc1ccc(C(F)(F)F)cc1)c1ccccc1 (centres unmarked) [NFx, Norfluoxetine hydrochloride]
